Side chains are listed from the residue outwards. Peptide text beside a SMILES is read from it. * marks the point of attachment. Dnp = O=[N+]([O-])c1ccc(*)c([N+](=O)[O-])c1; Ahx = NCCCCCC(=O)O
Assays:
[1] = system: anti-CALLA-anti-DNP dual specificity conjugate (compound 2) on Namalwa cells (human B lymphoma line); assay: Binding of radioiodinated probe to target cells in the presence of excess dual specificity conjugate; settings: for Bound/free (%): compound 2 at 0.5 μg/ml present, 3 h; for Bound/free (%), SB = Specific Binding: excess conjugate present
Experimental: (§1) In an Eppendorf plastic tube are incubated 100 μl of a cell suspension at 3.10^7 cells/ml of a human T-cell line (HPBALL) or of a human B lymphoma line (Namalwa) in phosphate buffered saline supplemented with 0.1% bovine serum albumin, 0.02% azide and 50 mM deoxyglucose, 100 μl of a solution of dual specificity conjugate, anti-CD5 (compound 1) or anti-CALLA (compound 2), at 0.5 μg/ml in the same buffer and 150 μl of radioiodinated compound 6 or compound 7. After 3 h at 4° C. or 37° C. with agitation, 100 μl of the resulting cell suspension are transferred into triplicate 0.4 ml plastic tubes containing 200 μl of a 1.2:1 mixture of dibutyl-phthalate and ethyl-hexyl-phthalate. After 30 sec centrifugation at 10,000 g, 50 μl of the supernatant are collected and counted, and the bottom of the tube, containing the cell pellet, is cut and counted. Results are then expressed as bound/free percentages.
(§2) The experimental settings allow cross-controlled experiments, since HPBALL cells express the T-cell marker CD5, but not the tumor-associated antigen CALLA, whereas Namalwa cells express CALLA, but not CD5.

[2] = system: anti-CALLA-anti-DNP dual specificity conjugate (compound 2; F(ab')2 clone ALB1 coupled to anti-DNP Fab' clone U7-27) with HPBALL cells (human T-cell line); assay: as above; settings: HPBALL cells (no CALLA), compound 2 at 0.5 μg/ml present, 3 h
Experimental: as §1, §2

[3] = system: anti-CD5-anti-DNP dual specificity conjugate (compound 1) with Namalwa cells (human B lymphoma line); assay: as above; settings: Namalwa cells (no CD5), compound 1 at 0.5 μg/ml present, 3 h
Experimental: as §1, §2

[4] = system: anti-CD5-anti-DNP dual specificity conjugate (compound 1; F(ab')2 clone BL1a coupled to anti-DNP Fab' clone U7-27) on HPBALL cells (human T-cell line); assay: as above; settings: for Bound/free (%): compound 1 at 0.5 μg/ml present, 3 h; for Bound/free (%), SB = Specific Binding: excess conjugate present
Experimental: as §1, §2

[5] = system: anti-CALLA-anti-DNP dual specificity conjugate (compound 2) on Namalwa cells (human B lymphoma line); assay: Binding of radioiodinated probe to target cells after washing the excess dual specificity conjugate; settings: for Bound/free (%): compound 2 1 h then washed 3 times, tracer 2 h; for Bound/free (%), SB = Specific Binding: excess conjugate washed
Experimental: as §1
(§3) The experimental conditions are similar to that described above but the dual specificity conjugate is incubated first for 1 h, then the cells are washed 3 times and the tracer is added. The cells are then pelleted after another 2 h incubation. Results.

[6] = system: anti-CALLA-anti-DNP dual specificity conjugate (compound 2) with HPBALL cells (human T-cell line); assay: as above; settings: HPBALL cells (no CALLA), compound 2 1 h then washed 3 times, tracer 2 h, 37° C.
Experimental: as §1, §3

[7] = system: anti-CD5-anti-DNP dual specificity conjugate (compound 1) on HPBALL cells (human T-cell line); assay: as above; settings: 37° C.; for Bound/free (%): compound 1 1 h then washed 3 times, tracer 2 h; for Bound/free (%), SB = Specific Binding: excess conjugate washed
Experimental: as §1, §3

[8] = system: anti-CD5-anti-DNP dual specificity conjugate (compound 1) with Namalwa cells (human B lymphoma line); assay: as above; settings: Namalwa cells (no CD5), compound 1 1 h then washed 3 times, tracer 2 h
Experimental: as §1, §3

[9] = system: anti-Lyb8.2-anti-DNP conjugate (compound 3) on BALB/c mouse spleen cells; assay: Binding of 111In-labeled probe to mouse spleen cells in the presence of conjugate; settings: 111In-labeled tracer, BALB/c spleen cells 10^7 cells/ml, 37° C., 2 h, compound 3 at 3.10^-9 M
Experimental: as §1
Compound 4, and the monomeric analogue, compound 5, (0.2 nmol) have been labeled with 0.2 mCi of ^111 In chloride by incubation at room temperature in 0.1M citrate buffer for 30 min. […] After incubation of freshly isolated BALB/c mouse spleen cells (10^7 cells/ml) at 37° C. for 2 h in the presence of anti-Lyb8.2-anti-DNPconjugate (compound 3) at 3.10^-9 M, binding of the labeled compounds 4 and 5 was monitored as described in example 4. […]

**Q.** With O=C(O)CNC(=O)[C@H](Cc1ccc(O)cc1)NC(=O)CCCCCNc1ccc([N+](=O)[O-])cc1[N+](=O)[O-] [compound 7, N-α-(2,4-dinitrophenyl-aminocaproyl)-L-tyrosyl-gylicine] as the molecule, how does the “Bound/free (%)” value ([1]; 4° C.) read?
**A.** 6%

**Q.** And the “Bound/free (%)” value ([1]; 37° C.)?
**A.** 5%

**Q.** What about the “Bound/free (%), SB = Specific Binding” value ([1]; 4° C.) of the same molecule?
**A.** 4%

**Q.** And the “Bound/free (%), SB = Specific Binding” value ([1]; 37° C.)?
**A.** 4%

**Q.** And the “Bound/free (%)” value ([2]; 4° C.)?
**A.** 3%

**Q.** And the “Bound/free (%)” value ([2]; 37° C.)?
**A.** 3%

**Q.** And the “Bound/free (%)” value ([3]; 4° C.)?
**A.** 2%

**Q.** What about the “Bound/free (%)” value ([3]; 37° C.) of the same molecule?
**A.** 1%

**Q.** What about the “Bound/free (%)” value ([4]; 4° C.) of the same molecule?
**A.** 38%

**Q.** What about the “Bound/free (%)” value ([4]; 37° C.) of the same molecule?
**A.** 12%

**Q.** And the “Bound/free (%), SB = Specific Binding” value ([4]; 4° C.)?
**A.** 35%

**Q.** And the “Bound/free (%), SB = Specific Binding” value ([4]; 37° C.)?
**A.** 9%

**Q.** What about the “Bound/free (%)” value ([5]; 4° C.) of the same molecule?
**A.** 50%

**Q.** What about the “Bound/free (%)” value ([5]; 37° C.) of the same molecule?
**A.** 4%

**Q.** And the “Bound/free (%), SB = Specific Binding” value ([5]; 4° C.)?
**A.** 42%

**Q.** And the “Bound/free (%), SB = Specific Binding” value ([5]; 37° C.)?
**A.** 2%

**Q.** What about the “Bound/free (%)” value [6] of the same molecule?
**A.** 3%

**Q.** What about the “Bound/free (%)” value [7] of the same molecule?
**A.** 11%

**Q.** And the “Bound/free (%), SB = Specific Binding” value [7]?
**A.** 7%

**Q.** And the “Bound/free (%)” value ([8]; 4° C.)?
**A.** 8%

**Q.** What about the “Bound/free (%)” value ([8]; 37° C.) of the same molecule?
**A.** 2%

**Q.** For O=C(O)CN(CCN(CC(=O)O)CC(=O)O)CCN(CC(=O)O)CC(=O)N[C@@H](CCCCNc1ccc([N+](=O)[O-])cc1[N+](=O)[O-])C(=O)O [compound 5, (N-ε-(2,4-dinitrophenyl)-L-Lysyl)-diethylenetriamine-pentaacetic acid], which bound/free [9] is on record?
**A.** 6%

**Q.** How did the bound/free [9] turn out when O=C(O)CN(CCN(CC(=O)O)CC(=O)N[C@@H](CCCCNc1ccc([N+](=O)[O-])cc1[N+](=O)[O-])C(=O)O)CCN(CC(=O)O)CC(=O)N[C@@H](CCCCNc1ccc([N+](=O)[O-])cc1[N+](=O)[O-])C(=O)O [compound 4, bis-(N-ε-(2,4-dinitrophenyl)-L-Lysyl)diethylenetriamine-pentaacetic acid] was run?
**A.** 26%

**Q.** How did the “Bound/free (%)” value ([1]; 4° C.) turn out when O=C(CCCCCNc1ccc([N+](=O)[O-])cc1[N+](=O)[O-])NCCCC[C@H](NC(=O)[C@H](Cc1ccc(O)cc1)NC(=O)CCCCCNc1ccc([N+](=O)[O-])cc1[N+](=O)[O-])C(=O)O [compound 6, N-α-(2,4-dinitrophenyl-aminocaproyl)-L-tyrosyl-N-ε-(2,4-dinitrophenyl-aminocaproyl)-L-lysine] ({Dnp-Ahx}-Tyr-Lys([Ahx-Dnp])-OH) was run?
**A.** 23%

**Q.** What about the “Bound/free (%)” value ([1]; 37° C.) of the same molecule?
**A.** 21%

**Q.** And the “Bound/free (%), SB = Specific Binding” value ([1]; 4° C.)?
**A.** 21%

**Q.** And the “Bound/free (%), SB = Specific Binding” value ([1]; 37° C.)?
**A.** 17%

**Q.** And the “Bound/free (%)” value ([2]; 4° C.)?
**A.** 16%

**Q.** And the “Bound/free (%)” value ([2]; 37° C.)?
**A.** 15%

**Q.** What about the “Bound/free (%)” value ([3]; 4° C.) of the same molecule?
**A.** 2%

**Q.** And the “Bound/free (%)” value ([3]; 37° C.)?
**A.** 4%

**Q.** What about the “Bound/free (%)” value ([4]; 4° C.) of the same molecule?
**A.** 72%

**Q.** What about the “Bound/free (%)” value ([4]; 37° C.) of the same molecule?
**A.** 67%

**Q.** And the “Bound/free (%), SB = Specific Binding” value ([4]; 4° C.)?
**A.** 56%

**Q.** And the “Bound/free (%), SB = Specific Binding” value ([4]; 37° C.)?
**A.** 52%

**Q.** And the “Bound/free (%)” value ([5]; 4° C.)?
**A.** 145%

**Q.** And the “Bound/free (%)” value ([5]; 37° C.)?
**A.** 11%

**Q.** What about the “Bound/free (%), SB = Specific Binding” value ([5]; 4° C.) of the same molecule?
**A.** 130%

**Q.** And the “Bound/free (%), SB = Specific Binding” value ([5]; 37° C.)?
**A.** 7%

**Q.** What about the “Bound/free (%)” value [6] of the same molecule?
**A.** 9%

**Q.** What about the “Bound/free (%)” value [7] of the same molecule?
**A.** 45%

**Q.** What about the “Bound/free (%), SB = Specific Binding” value [7] of the same molecule?
**A.** 36%

**Q.** What about the “Bound/free (%)” value ([8]; 4° C.) of the same molecule?
**A.** 15%

**Q.** What about the “Bound/free (%)” value ([8]; 37° C.) of the same molecule?
**A.** 4%
